Measurements: PubChem BioAssay (NCI)
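Cultured in 96-well plates, cells were exposed to test compound for 48 hours across five concentrations. GI50 marks 50% less growth. TGI is the concentration that stops growth completely.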

Key:
Assay in all cases: NCI anticancer screen, dose series, 48 h
NCI-H23 lung = tested on: NCI-H23 lung
NCI-H460 lung = tested on: NCI-H460 lung
NCI-H522 lung = tested on: NCI-H522 lung
NCI/ADR-RES ovarian = tested on: NCI/ADR-RES ovarian
OVCAR-3 ovarian = tested on: OVCAR-3 ovarian
OVCAR-4 ovarian = tested on: OVCAR-4 ovarian
OVCAR-5 ovarian = tested on: OVCAR-5 ovarian
OVCAR-8 ovarian = tested on: OVCAR-8 ovarian
PC-3 prostate = tested on: PC-3 prostate
RPMI-8226 leukemia = tested on: RPMI-8226 leukemia
RXF 393 renal = tested on: RXF 393 renal
SF-268 CNS = tested on: SF-268 CNS
SF-295 CNS = tested on: SF-295 CNS
SF-539 CNS = tested on: SF-539 CNS
SK-MEL-2 melanoma = tested on: SK-MEL-2 melanoma
SK-MEL-28 melanoma = tested on: SK-MEL-28 melanoma
SK-MEL-5 melanoma = tested on: SK-MEL-5 melanoma
SK-OV-3 ovarian = tested on: SK-OV-3 ovarian
SN12C renal = tested on: SN12C renal
SNB-19 CNS = tested on: SNB-19 CNS
SNB-75 CNS = tested on: SNB-75 CNS
SR leukemia = tested on: SR leukemia
SW-620 colon = tested on: SW-620 colon
T-47D breast = tested on: T-47D breast
TK-10 renal = tested on: TK-10 renal
U251 CNS = tested on: U251 CNS
UACC-257 melanoma = tested on: UACC-257 melanoma
UACC-62 melanoma = tested on: UACC-62 melanoma
UO-31 renal = tested on: UO-31 renal

Cn1cc(C2=C(Oc3ccccc3)C(=O)NC2=O)c2ccccc21
TGI (NCI-H23 lung): > 25 µM | GI50 (NCI-H460 lung): > 25 µM | TGI (NCI-H460 lung): > 25 µM | GI50 (NCI-H522 lung): > 25 µM | TGI (NCI-H522 lung): > 25 µM | GI50 (NCI/ADR-RES ovarian): > 25 µM | TGI (NCI/ADR-RES ovarian): > 25 µM | GI50 (OVCAR-3 ovarian): > 25 µM | TGI (OVCAR-3 ovarian): > 25 µM | GI50 (OVCAR-4 ovarian): > 25 µM | TGI (OVCAR-4 ovarian): > 25 µM | GI50 (OVCAR-5 ovarian): > 25 µM | TGI (OVCAR-5 ovarian): > 25 µM | GI50 (OVCAR-8 ovarian): > 25 µM | TGI (OVCAR-8 ovarian): > 25 µM | GI50 (PC-3 prostate): > 25 µM | TGI (PC-3 prostate): > 25 µM | GI50 (RPMI-8226 leukemia): > 25 µM | TGI (RPMI-8226 leukemia): > 25 µM | GI50 (RXF 393 renal): > 25 µM | TGI (RXF 393 renal): > 25 µM | GI50 (SF-268 CNS): > 25 µM | TGI (SF-268 CNS): > 25 µM | GI50 (SF-295 CNS): > 25 µM | TGI (SF-295 CNS): > 25 µM | GI50 (SF-539 CNS): > 25 µM | TGI (SF-539 CNS): > 25 µM | GI50 (SK-MEL-2 melanoma): > 25 µM | TGI (SK-MEL-2 melanoma): > 25 µM | GI50 (SK-MEL-28 melanoma): > 25 µM | TGI (SK-MEL-28 melanoma): > 25 µM | GI50 (SK-MEL-5 melanoma): > 25 µM | TGI (SK-MEL-5 melanoma): > 25 µM | GI50 (SK-OV-3 ovarian): > 25 µM | TGI (SK-OV-3 ovarian): > 25 µM | GI50 (SN12C renal): > 25 µM | TGI (SN12C renal): > 25 µM | GI50 (SNB-19 CNS): > 25 µM | TGI (SNB-19 CNS): > 25 µM | GI50 (SNB-75 CNS): > 12.4 µM | TGI (SNB-75 CNS): > 25 µM | GI50 (SR leukemia): > 25 µM | TGI (SR leukemia): > 25 µM | GI50 (SW-620 colon): > 25 µM | TGI (SW-620 colon): > 25 µM | GI50 (T-47D breast): > 25 µM | TGI (T-47D breast): > 25 µM | GI50 (TK-10 renal): > 25 µM | TGI (TK-10 renal): > 25 µM | GI50 (U251 CNS): > 25 µM | TGI (U251 CNS): > 25 µM | GI50 (UACC-257 melanoma): > 25 µM | TGI (UACC-257 melanoma): > 25 µM | GI50 (UACC-62 melanoma): > 25 µM | TGI (UACC-62 melanoma): > 25 µM | GI50 (UO-31 renal): > 25 µM | TGI (UO-31 renal): > 25 µM
